From patent US3984411A, “Pyrimidines” (Societe Generale de Recherches et d'Applications …, priority 1975, dated 1976)
Counter-ions that a name gives are not always drawn. Like-named read-outs stand apart in the source and are kept apart here.

Legend:
[1] = system: glycemia; assay: Hypoglycemiant effect in the rat, oral, 4 days treatment; assay type: in vivo, male rat CD (Charles RIVER); settings: for hypoglycemiant effects (in words): oral, 4 days
Experimental: The hypoglycemiant properties have been studied on the male rat CD (Charles RIVER) of 200-250 g, of which the glycemia is controlled after 4 days of daily treatment by oral application. The serum glucose is determined by the method of W. S. Hoffman, J. Biol. Chem., 120, 51 (1937). Groups of 10 rats are used and the hypoglycemiant activity is expressed by the percentage variation of the average glycemia of the treated animals compared with that of the controls. The statistical significance of the differences observed is determined by application of the STUDENT test.

[2] = system: mice CD 1 (Charles RIVER); assay: Toxicity (LD 50) in mice by intravenous and oral application; assay type: in vivo; settings: mice CD 1, oral; cumulative quantal method
Excerpt: (§1) The toxicities of the compounds according to the invention have been determined on mice CD 1 (Charles RIVER) by intravenous and oral applications. The LD 50, calculated by the cumulative quantal method of J. J. Reed and H. Muench, Am.

[3] = as above; assay type: in vivo; settings: mouse, in vivo, cumulative quantal method
Excerpt: as §1

[4] = system: cholesterolemia; assay: Hypocholesterolemiant effect in the rat, oral, 4 days treatment; assay type: in vivo, rat CD (Charles RIVER); settings: for hypocholesterolemiant activities (in words): oral, 4 days
Experimental: The hypocholesterolemiant effects of the products according to the invention have been studied on the rat CD (Charles RIVER) by oral application. The animals, divided into groups of 10, are treated daily by gastric probe for 4 consecutive days. Four hours after the last administration, the rats are killed and their blood is collected in order to proceed to the determination of the amount of cholesterol according to the method of J. Levine and B. Zak, Clin. Acta, 10, 381 (1964).
The activity of the substances is evaluated by calculating the percentage variation of the average amount of cholesterol of the animals treated with respect to that of the control animals. Then the statistical significance of the differences observed is determined by application of the STUDENT test.

[5] = mice CD 1, intravenous, read-out: Intense toxicities to mice (LD 50), intravenous
[6] = 50 mg/kg taken orally, all values significant at p = 0.001
[7] = 100 mg/kg taken orally, significant at p = 0.001, except Example 18 at p = 0.05
[8] = mice CD 1, oral, read-out: Intense toxicities to mice (LD 50), oral
[9] = 100 mg/kg taken orally, significant at p = 0.001
[10] = 300 mg/kg taken orally, significant at p = 0.001

Compound | Intense toxicities to mice (LD 50), oral [2] | LD50 [3, 5] [mg/kg] | hypocholesterolemiant activities (in words) [4] | Variation of the cholesterolemia in % with respect to the controls after 4 days treatment [4, 7] [%] | LD50 [3, 8] [mg/kg] | Percentage variation of the glycemia compared with the controls after 4 days treament [1, 10] [%] | hypoglycemiant effects (in words) [1] | also measured
COc1c(OC2CCN(C)CC2)nc(N2CCOCC2)nc1OC1CCN(C)CC1 [Example 14, 2-morpholino-4,6-di[(N-methyl-4'-piperidyl)oxy]-5-methoxy-pyrimidine] | atoxic at 900 | 67 |  |  |  |  |  | Percentage variation of the glycemia compared with the controls after 4 days treament ([1]; 200 mg/kg taken orally, significant at p = 0.001): -24%
Cc1c(OC2CCN(C)CC2)nc(N2CCOCC2)nc1OC1CCN(C)CC1 [Example 15, 2-moropholino-4,6-di[(N-methyl-4'-piperidyl)oxy]-5-methyl-pyrimidine] | atoxic at 900 | 81 | remarkable hypocholesterolemiant activities |  |  |  |  | Percentage variation of the glycemia compared with the controls after 4 days treament ([1]; 50 mg/kg taken orally, significant at p = 0.05): -12%; Variation of the cholesterolemia in % with respect to the controls after 4 days treatment [4, 6]: -31%
CCc1c(OC2CCN(C)CC2)nc(N2CCOCC2)nc1OC1CCN(C)CC1 [Example 16, 2-morpholino-4,6-di[(N-methyl-4'-piperidyl)oxy]-5-ethyl-pyrimidine dihydrobromide] |  | 54 | remarkable hypocholesterolemiant activities | -60 | ~525 |  |  | 
CCCCc1c(OC2CCN(C)CC2)nc(N2CCOCC2)nc1OC1CCN(C)CC1 [Example 17, 2-morpholino-4,6-di[(N-methyl-4'-piperidyl)oxy]-5-n-butyl-pyrimidine dihydrochloride] |  |  |  | -36 | ~225 |  |  | 
CN1CCC(Oc2nc(N3CCOCC3)nc(OC3CCN(C)CC3)c2-c2ccc(Cl)cc2)CC1 [Example 18, 2-morpholino-4,6-di[(N-methyl-4'-piperidyl)oxy]-5-p-chlorophenyl-pyrimidine] |  | 20 |  | -14 | ~600 | -35 | especially large hypoglycemiant effects | Percentage variation of the glycemia compared with the controls after 4 days treament [1, 9]: -29%; Variation of the cholesterolemia in % with respect to the controls after 4 days treatment [4, 10]: -44%
CCOc1c(OC2CCN(C)CC2)nc(N2CCOCC2)nc1OC1CCN(C)CC1 [Example 19, 2-morpholino-4,6-di[(N-methyl-4'-piperidyl)oxy]-5-ethoxy-pyrimidine dihydrochloride] |  | 70 |  |  | ~600 | -43 | especially large hypoglycemiant effects | 
CN1CCC(Oc2nc(N3CCOCC3)nc(OC3CCN(C)CC3)c2Oc2ccc(Cl)cc2)CC1 [Example 20, 2-morpholino-4,6-di[(N-methyl-4'-piperidyl)oxy]-5-p-chlorophenoxy-pyrimidine] |  |  | remarkable hypocholesterolemiant activities | -47 | > 900 | -27 | especially large hypoglycemiant effects | 
CN1CCC(Oc2nc(N3CCOCC3)nc(OC3CCN(C)CC3)c2Cc2ccccc2)CC1 [Example 21, 2-morpholino-4,6-di[(N-methyl-4'-piperidyl)oxy]-5-benzyl-pyrimidine] |  | 40 |  | -39 | ~800 |  | especially large hypoglycemiant effects | Percentage variation of the glycemia compared with the controls after 4 days treament [1, 9]: -27%
CN1CCC(Oc2nc(N3CCOCC3)nc(OC3CCN(C)CC3)c2Cl)CC1 [Example 22, 2-morpholino-4,6-di[(N-methyl-4'-piperidyl)oxy]-5-chloro-pyrimidine] | atoxic at 900 |  | remarkable hypocholesterolemiant activities | -45 |  |  |  | Variation of the cholesterolemia in % with respect to the controls after 4 days treatment [4, 6]: -19%
CN1CCC(Oc2cc(OC3CCN(C)CC3)nc(N3CCOCC3)n2)CC1 [Example 23, 2-morpholino-4,6-di[(N-methyl-4'-piperidyl)oxy]-pyrimidine] | atoxic at 900 |  |  |  |  |  |  | Percentage variation of the glycemia compared with the controls after 4 days treament ([1]; 400 mg/kg taken orally, significant at p = 0.001): -20%
